Assay results published in patent US11236086B2, “Substituted pyrrolopyridines as inhibitors of activin receptor-like kinase” (BLUEPRINT MEDICINES CORPORATION, priority 2017, dated 2022).

Tests used:
[1] = biological target: T1, ALK2R206H (mutant ALK2, N-terminally tagged with GST) (Homo sapiens, UniProt Q04771, R206H); assay: ALK binding assay (LANTHASCREEN TR-FRET competitive binding, displacement of Kinase Tracer 178); settings: read-out: Binding Assay (IC50 class)
T1 construct: purchased Carna Bioscience or ThermoFisher 09-148 or PV6232
T1 sequence (Q04771 21-509 R206H): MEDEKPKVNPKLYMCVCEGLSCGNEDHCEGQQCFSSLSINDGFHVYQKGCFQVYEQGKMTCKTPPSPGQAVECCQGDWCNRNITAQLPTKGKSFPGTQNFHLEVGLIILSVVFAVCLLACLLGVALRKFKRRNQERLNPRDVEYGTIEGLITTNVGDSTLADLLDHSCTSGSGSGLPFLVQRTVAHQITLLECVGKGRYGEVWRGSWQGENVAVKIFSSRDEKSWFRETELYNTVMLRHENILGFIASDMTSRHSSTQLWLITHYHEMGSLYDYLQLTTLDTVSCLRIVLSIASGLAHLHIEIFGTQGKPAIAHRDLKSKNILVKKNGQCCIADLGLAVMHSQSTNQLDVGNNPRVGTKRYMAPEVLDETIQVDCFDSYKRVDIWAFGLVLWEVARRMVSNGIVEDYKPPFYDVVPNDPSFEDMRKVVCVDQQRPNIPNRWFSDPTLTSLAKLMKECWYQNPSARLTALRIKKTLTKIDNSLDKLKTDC
Experimental: Example 10 ALK Binding Assays
Binding assays were conducted using the LANTHASCREEN® technology (ThermoFisher Scientific). LANTHASCREEN® is a competitive binding, displacement assay where the assumed steady state occupancy of the binding site is measured using a time-resolved, fluorescence energy transfer (TR-FRET) readout between a fluorescent tracer and Europium (Eu)-tagged antibody specific for the kinase or expression tag (e.g., GST) of interest. Displacement of the tracer by a compound of the disclosure reduces, and is directly proportional to, the TR-FRET between the tracer and the antibody. Tracer was used at a concentration equal to or near to its Kd for the kinase. The Eu-tagged antibody was typically used in excess to ensure sampling of all competent protein capable of binding the tracer.
For these assays, a mutant ALK2 was used that was N-terminally tagged with GST (ALK2R206H Carna Bioscience (09-148) or ALK2R206H ThermoFisher (PV6232)); a Eu-tagged anti-GST antibody (ThermoFisher) and Kinase Tracer 178 (ThermoFisher).
In all cases, the kinase (2-5 nM) was mixed with Eu-tagged antibody (4-10 nM) mix and tracer (50 nM) were incubated with test compound titrations prepared in 100% DMSO (1% DMSO final) for 30 minutes at room temperature. All reagents and compounds were dissolved in Kinase Buffer A (ThermoFisher) to achieve the final concentration. The plates were read on a PerkinElmer EnVision® multilabel plate reader or a BioTek Synergy Neo plate reader, and the assay signal was represented as a ratio of the TR-FRET emission (λex 330 nm, λ^em […] and λ^em 665 nm). This readout was normalized to 0% and 100% inhibited control wells, plotted against inhibitor concentration, and fitted to a 4-parameter log dose response curve.
The results of this assay are shown in Table 3 in the column labelled “Binding Assay” wherein “A” represents an IC50 of less than or equal to 10 nM; “B” represents an IC50 of greater than 10 nM and less than or equal to 50 nM; and “C” represents an IC50 of greater than 50 nM. Blank values in the table indicate that the particular compound was not tested in this assay.

human ALK2 R206H = biological target: T2, human ALK2 R206H (Homo sapiens, UniProt Q04771, R206H); assay: Cell-based ALK2-R206H cell activity assay (Smad1-Ser463/Ser465 phosphorylation by AlphaLISA in HEK293-ALK2-R206H cells); settings: phospho-Smad1 AlphaLISA, read-out: Cell Line (Cell Assay, IC50 class)
T2 construct: expressed in transfected cells; host or cells: HEK293 (ATCC CRL1573), lentivirus transduction, blasticidin selection
T2 sequence (Q04771 21-509 R206H): T1 sequence (Q04771 21-509 R206H)
Experimental: Example 11. Cell-Based ALK2-R206H Cell Activity Assay
A HEK293 (ATCC, Cat No. CRL1573) based stable cell line expressing human ALK2 R206H cDNA (synthesized by GeneScript, Piscataway, N.J.) and a FLAG tag at the C-terminus was generated by lentivirus transduction and subsequent blasticidin (Life Technologies, Cat No. A1113902) selection at 10 μg/ml for >2 wks. This cell line was named HEK293-ALK2-R206H.
B. Measurement of Smad1-Ser463/Ser465 Phosphorylation by AlphaLISA
HEK293-ALK2-R206H cells were grown, harvested, and then resuspended in serum-free, phenol red-free DMEM high glucose media (Life Technologies, Cat No. 31053). The media also contained 50 units/ml penicillin and 50 μg/ml streptomycin (Life Technologies, Cat. No. 15070-063). HEK293-ALK2-R206H cells were then plated in white opaque 384-wells microplates (2×10^4/well) (OptiPlate-384, PerkinElmer, Waltham, Mass., Cat No. 6007299) overnight (>16h) at 37° C. 5% CO2 for use in the assay.
Test compounds were first diluted to 4 mM or 0.4 mM and then serially diluted 3-fold into 10 different concentrations using DMSO. Each concentration of compound was further diluted 40-fold with phenol red-free DMEM (Life Technologies, Cat No. 31053). 2 μl of the diluted compounds were then dispensed into the HEK293-ALK2-R206H cell-containing wells of the microplates in duplicates. In this way, each compound was tested in 10 doses (3-fold serial dilution with the top concentration being 10 μM or 1 μM). Liquid handling was achieved using a Bravo Automated Liquid Handling Platform (Agilent Technologies). DMSO without compound was used as a negative control. The positive control was 1 μM LDN193189, a known bone morphogenetic protein (BMP inhibitor).
After 2-3 hours of incubation with test compound or control, the cells were lysed and signal was developed using ALPHASCREEN® SUREFIRE® SMAD1 (p-Ser463/465) cellular kinase assay kit (PerkinElmer, Cat No. TGRSM1S10K) following the manufacturer's recommended protocol. The microplates were read using Perkin Elmer ENVISION® plate reader (emission […]). The signal reflected the level of phospho-Ser/463/465-Smad1 in the lysate. The raw data were plotted using the DMSO negative and LDN193189 positive controls as the 0% and 100% inhibition, respectively. The 10-point dose response curve was used to calculate the IC50 values.
The results of this assay are shown in Table 3 in the column labeled “Cell Assay” wherein “A” represents an IC50 of less than or equal to 100 nM; “B” an IC50 of greater than 100 nM and less than or equal to 500 nM; “C” an IC50 of greater than 500 nM. Blank values in the table indicate that the particular compound was not tested in this assay.

Compound | IC50 [1] [nM] | IC50 (human ALK2 R206H) [nM]
Cn1cc(-c2[nH]c3nccc(N4CCN(C(=O)O[C@H]5CCC5(F)F)CC4)c3c2C#N)cn1 [Compound 367] | ≤ 10 | ≤ 100
N#Cc1ccc(-c2cc3c(N4CCN(C(=O)C5CC5)CC4)ccnc3[nH]2)cc1 [Compound 45] | ≤ 10 | ≤ 100
Cn1cc(-c2cc3c(N4CCN(C(=O)OC5CCC5)CC4)ccnc3[nH]2)cn1 [Compound 77] | ≤ 10 | ≤ 100
N#Cc1c(-c2cn3c(n2)CCC3)[nH]c2nccc(N3CCN(C(=O)OC4COC4)CC3)c12 [Compound 342] | ≤ 10 | ≤ 100
O=C(C1CC1)N1CCN(c2ccnc3[nH]c(-c4cnn(C5CCC5)c4)cc23)CC1 [Compound 128] | ≤ 10 | 100 to 500
O=C(OC1COC1)N1CCN(c2ccnc3[nH]c(-c4cn5c(n4)CCC5)cc23)CC1 [Compound 218] | ≤ 10 | ≤ 100
CCOc1ccc(-c2cc3c(N4CCN(C(=O)C5CC5)CC4)ccnc3[nH]2)cc1 [Compound 127] | 10 to 50 | 100 to 500
Cn1cc(-c2cc3c(N4CCN(C(=O)OC5CC5)CC4)ccnc3[nH]2)cn1 [Compound 30] | ≤ 10 | ≤ 100
Cn1cc(-c2[nH]c3nccc(N4CCN(C(=O)OC5COC5)CC4)c3c2F)cn1 [Compound 178] | ≤ 10 | 100 to 500
CCOC(=O)N1CCN(c2ccnc3[nH]c(-c4cnn(C(F)F)c4)cc23)CC1 [Compound 125] | ≤ 10 | ≤ 100
CCOC(=O)N1CCN(c2ccnc3[nH]c(-c4cnn(C)c4)c(F)c23)CC1 [Compound 50] | ≤ 10 | ≤ 100
Cc1nc(-c2[nH]c3nccc(N4CCN(C(=O)OC5CC(F)(F)C5)CC4)c3c2C#N)cn1C [Compound 412] | ≤ 10 | ≤ 100
CCC(C)C(=O)N1CCN(c2ccnc3[nH]c(-c4cnn(C)c4)cc23)CC1 (centres unmarked) [Compound 33] | 10 to 50 | 100 to 500
CC(C)c1cnc(-c2cc3c(N4CCN(C(=O)OC5COC5)CC4)ccnc3[nH]2)s1 [Compound 316] | ≤ 10 | ≤ 100
CCOC(=O)N1CCN(c2ccnc3[nH]c(-c4cnn(C)c4)c(CO)c23)CC1 [Compound 111] | ≤ 10 | 100 to 500
Cc1nc(-c2cc3c(N4CCN(C(=O)O[C@H]5C[C@H](F)C5)CC4)ccnc3[nH]2)cs1 [Compound 260] | ≤ 10 | ≤ 100
Cc1c(-c2cnn(C)c2)[nH]c2nccc(N3CCN(C(=O)OC4CCC4)CC3)c12 [Compound 140] | ≤ 10 | ≤ 100

The next lines start with the values.

IC50 [1] [nM] | IC50 (human ALK2 R206H) [nM] | Compound
≤ 10 | 100 to 500 | Cc1csc(-c2cc3c(N4CCN(C(=O)C5CC5)CC4)ccnc3[nH]2)n1 [Compound 35]
≤ 10 | 100 to 500 | N#Cc1cnc(-c2cc3c(N4CCN(C(=O)OC5COC5)CC4)ccnc3[nH]2)nc1 [Compound 198]
≤ 10 | ≤ 100 | CC(C)n1cc(-c2cc3c(N4CCN(C(=O)C5CC5)CC4)ccnc3[nH]2)cn1 [Compound 65]
≤ 10 | ≤ 100 | CCN1CCC(c2ccc(-c3cc4c(N5CCN(C(=O)C6CC6)CC5)ccnc4[nH]3)cc2)C(F)(F)C1 (centres unmarked) [Compound 460]
≤ 10 | ≤ 100 | Cc1nc(-c2cc3c(N4CCN(C(=O)O[C@@H](C)CF)CC4)ccnc3[nH]2)cs1 [Compound 189]
≤ 10 | ≤ 100 | Cn1cnc(-c2cc3c(N4CCN(C(=O)O[C@@H]5CCC5(F)F)CC4)ccnc3[nH]2)c1 [Compound 264]
≤ 10 | ≤ 100 | Cn1cc(-c2cc3c(N4CCN(C(=O)OC5COC5)CC4)ccnc3[nH]2)cn1 [Compound 90]
≤ 10 | ≤ 100 | CC(C)N1CCC(c2ccc(-c3cc4c(N5CCN(C(=O)OC6COC6)CC5)ccnc4[nH]3)nc2)CC1 [Compound 469]
≤ 10 | > 500 | Cn1cc(-c2cc3c(N4CCN(C(=O)C5CCOCC5)CC4)ccnc3[nH]2)cn1 [Compound 144]
≤ 10 | 100 to 500 | CCOC(=O)N1CCN(c2ccnc3[nH]c(-c4cccc(C)n4)cc23)CC1 [Compound 26]
≤ 10 | ≤ 100 | O=C(OC1COC1)N1CCN(c2ccnc3[nH]c(-c4ccc(C5(O)CCCC5)cc4)cc23)CC1 [Compound 427]
≤ 10 | ≤ 100 | O=C(C1CC1)N1CCN(c2ccnc3[nH]c(-c4ccc(N5CCOCC5)cc4)cc23)CC1 [Compound 335]
≤ 10 | 100 to 500 | Cn1cc(-c2cc3c(N4CCN(C(=O)OCCC#N)CC4)ccnc3[nH]2)cn1 [Compound 71]
≤ 10 | 100 to 500 | N#Cc1cc(-c2cc3c(N4CCN(C(=O)OC5COC5)CC4)ccnc3[nH]2)cs1 [Compound 227]
≤ 10 | ≤ 100 | Cn1cc(-c2[nH]c3nccc(N4CCN(C(=O)OC5CC5)CC4)c3c2C#N)cn1 [Compound 129]
≤ 10 | 100 to 500 | Cn1cc(-c2cc3c(N4CCN(C(=O)C5CCCC5)CC4)ccnc3[nH]2)cn1 [Compound 64]
≤ 10 | ≤ 100 | CCCOC(=O)N1CCN(c2ccnc3[nH]c(-c4cnn(C)c4)c(Cl)c23)CC1 [Compound 187]
≤ 10 | ≤ 100 | Cc1nc(-c2cc3c(N4CCN(C(=O)OC5COC5)CC4)ccnc3[nH]2)sc1C [Compound 250]
≤ 10 | 100 to 500 | CCOC(=O)N1CCN(c2ccnc3[nH]c(-c4ncc(C)s4)cc23)CC1 [Compound 49]
≤ 10 | ≤ 100 | CCOC(=O)N1CCN(c2ccnc3[nH]c(-c4ccc([C@@]5(O)CCOC5)cc4)cc23)CC1 [Compound 355]
